Data reported in patent US12655125B2 (SIRONAX LTD., priority 2020, dated 2026).

test system: HT-29 cells; test: HT29 Cells 0FBS Assay In Vitro (TNF-α/SMAC mimetic/zVAD-FMK induced necroptosis, CellTiter-Glo cell viability); format: cell-based; conditions: Homo sapiens; HT-29 cells, FBS free medium, TNF-α (10 ng/ml), SMAC mimetic (6 uM), zVAD-FMK (10 μM), 20 hours; geometric mean EC50; read-out: Cell activity (EC50) of Compounds 117-281
Outline: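 HT-29 cells (5,000/well, seeded overnight) in serum-free McCoy's 5A were stimulated with TNF-α 10 ng/ml, SMAC mimetic 6 μM and zVAD-FMK 10 μM to induce necroptosis. Compound added as 10-point 3-fold series for 20 h at 37° C. CellTiter-Glo luminescence gives viability; EC50 is geometric mean of duplicate dose-responses.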

Compared with `Cc1c(-c2cc(OC3CN(C(=O)N4N=CC[C@H]4c4cc(F)cc(F)c4)C3)c(F)cn2)nn(C)c1C1=NCCN1` [compound 266, (S)-(5-(3,5-difluorophenyl)-4,5-dihydro-1H-pyrazol-1-yl)(3-((2-(5-(4,5-dihydro-1H-imidazol-2-yl)-1,4-dimethyl-1H-pyrazol-3-yl)-5-fluoropyridin-4-yl)oxy)azetidin-1-yl)methanone], `Cc1c(-c2cc(OC3CN(C(=O)N4N=CC[C@H]4c4cc(F)cc(F)c4)C3)c(F)cn2)nn(C)c1C1=NCCN1C` [compound 267, (S)-(5-(3,5-difluorophenyl)-4,5-dihydro-1H-pyrazol-1-yl)(3-((2-(1,4-dimethyl-5-(1-methyl-4,5-dihydro-1H-imidazol-2-yl)-1H-pyrazol-3-yl)-5-fluoropyridin-4-yl)oxy)azetidin-1-yl)methanone] is higher in EC50: 0.1 to 100 nM for the first, 100 to 1000 nM for the second.

`Cc1noc(C)c1-c1cc(OC2CN(C(=O)N3N=CC[C@H]3c3cc(F)cc(F)c3)C2)c(F)cn1` [compound 268, (S)-(5-(3,5-difluorophenyl)-4,5-dihydro-1H-pyrazol-1-yl)(3-((2-(3,5-dimethylisoxazol-4-yl)-5-fluoropyridin-4-yl)oxy)azetidin-1-yl)methanone] and `Cc1nn(-c2cc(OC3CN(C(=O)N4N=CC[C@H]4c4cc(F)cc(F)c4)C3)c(F)cn2)c(C)c1CC#N` [compound 271, (S)-2-(1-(4-((1-(5-(3,5-difluorophenyl)-4,5-dihydro-1H-pyrazole-1-carbonyl)azetidin-3-yl)oxy)-5-fluoropyridin-2-yl)-3,5-dimethyl-1H-pyrazol-4-yl)acetonitrile] fall in the same range of EC50: 0.1 to 100 nM for the first, 0.1 to 100 nM for the second.

`Cc1nn(-c2cc(OC3CN(C(=O)N4N=CC[C@H]4c4cc(F)cc(F)c4)C3)c(F)cn2)c(C)c1CN(C)C` [compound 269, (S)-(5-(3,5-difluorophenyl)-4,5-dihydro-1H-pyrazol-1-yl)(3-((2-(4-((dimethylamino)methyl)-3,5-dimethyl-1H-pyrazol-1-yl)-5-fluoropyridin-4-yl)oxy)azetidin-1-yl)methanone] and `Cc1nn(-c2cc(OC3CN(C(=O)N4N=CC[C@H]4c4cc(F)cc(F)c4)C3)c(F)cn2)c(C)c1CN1CCCC1=O` [compound 274, (S)-1-((1-(4-((1-(5-(3,5-difluorophenyl)-4,5-dihydro-1H-pyrazole-1-carbonyl)azetidin-3-yl)oxy)-5-fluoropyridin-2-yl)-3,5-dimethyl-11H-pyrazol-4-yl)methyl)pyrrolidin-2-one] fall in the same range of EC50: 0.1 to 100 nM for the first, 0.1 to 100 nM for the second.

`Cc1nn(-c2cc(OC3CN(C(=O)N4N=CC[C@H]4c4cc(F)cc(F)c4)C3)c(F)cn2)c(C)c1N1CCCC1=O` [compound 270, (S)-1-(1-(4-((1-(5-(3,5-difluorophenyl)-4,5-dihydro-1H-pyrazole-1-carbonyl)azetidin-3-yl)oxy)-5-fluoropyridin-2-yl)-3,5-dimethyl-1H-pyrazol-4-yl)pyrrolidin-2-one] and `Cc1c(C(N)=O)cnn1-c1cc(OC2CN(C(=O)N3N=CC[C@H]3c3cc(F)cc(F)c3)C2)c(F)cn1` [compound 273, (S)-1-(4-((1-(5-(3,5-difluorophenyl)-4,5-dihydro-1H-pyrazole-1-carbonyl)azetidin-3-yl)oxy)-5-fluoropyridin-2-yl)-5-methyl-1H-pyrazole-4-carboxamide] fall in the same range of EC50: 0.1 to 100 nM for the first, 0.1 to 100 nM for the second.

`Cc1nn(-c2cc(OC3CN(C(=O)N4N=CC[C@H]4c4cc(F)cc(F)c4)C3)c(F)cn2)cc1C(N)=O` [compound 272, (S)-1-(4-((1-(5-(3,5-difluorophenyl)-4,5-dihydro-1H-pyrazole-1-carbonyl)azetidin-3-yl)oxy)-5-fluoropyridin-2-yl)-3-methyl-11H-pyrazole-4-carboxamide] and `Cc1nn(-c2ccc(F)c(OC3CN(C(=O)N4N=CC[C@H]4c4cc(F)cc(F)c4)C3)n2)c(C)c1C(N)=O` [compound 275] fall in the same range of EC50: 0.1 to 100 nM for the first, 0.1 to 100 nM for the second.
